Experimental data as given in PubChem BioAssay (NCI).
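Test compounds were applied to cells in 96-well plates for 48 hours at 5 doses. GI50 is the concentration that inhibits growth by half. Definition used: TGI = concentration required for complete inhibition of growth.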

Columns and labels:
Assay in all cases: growth of human tumour cells (NCI), 48 h
[1] = test system: RXF 393 renal
[2] = test system: U251 CNS
[3] = test system: RPMI-8226 leukemia
[4] = test system: MALME-3M melanoma
[5] = test system: ACHN renal
[6] = test system: OVCAR-3 ovarian
[7] = test system: EKVX NSCLC
[8] = test system: SK-MEL-5 melanoma
[9] = test system: COLO 205 colon
[10] = test system: OVCAR-5 ovarian

Row | SMILES | TGI [1] | TGI [2] | TGI [3] | TGI [4] | TGI [5] | TGI [6] | TGI [7] | TGI [8] | TGI [9] | GI50 [1] | GI50 [2] | GI50 [3] | GI50 [5] | GI50 [6] | GI50 [7] | GI50 [8] | GI50 [10] | TGI [10] | GI50 [9] | GI50 [4]
1 | CCOC(=O)C1=C(C)N(c2ccc(C)cc2)C2=C(C(=O)N(c3ccccc3)C2c2ccccc2)C1c1ccccc1 (stereo not drawn) | > 25 µM | > 25 µM | > 25 µM | > 25 µM | > 25 µM | > 25 µM | > 25 µM | > 25 µM | > 25 µM |  |  |  |  |  |  |  |  |  |  | 
2 | COc1ccc(-c2nc3ccccn3c2/C=C/C(=O)c2cc(OC)c(OC)c(OC)c2)cc1 | > 100 µM | 30.6 µM | > 100 µM |  | > 100 µM | 9.67 µM | > 100 µM | 14.3 µM | 13.5 µM | 2.94 µM | 3 µM | 7.5 µM | 3.26 µM | 2.88 µM | 7.42 µM | 2.72 µM | 9.33 µM | 82.2 µM | 3.5 µM | 
3 | CCCCS(=O)(=O)CCC(N)C(=O)O (stereo not drawn) | > 100 µM | > 100 µM |  | > 100 µM | > 100 µM | > 100 µM | > 100 µM | > 100 µM | > 100 µM |  |  |  |  |  |  |  |  | > 100 µM |  | 
4 | O=c1[nH]c(=O)n(C2CC(O)C(CO)O2)cc1C1=NC1 (stereo not drawn) | > 100 µM | > 100 µM | > 100 µM |  | > 100 µM | > 100 µM | > 100 µM | > 100 µM | > 100 µM |  |  |  |  |  |  |  |  | > 100 µM |  | 
5 | CN(C)CCNC(=O)c1cccc2c1nc(-c1ccccc1)c1ccccc12 | 9.43 µM | 18.4 µM |  |  | 13.4 µM | 20.7 µM | 25.7 µM | 5.52 µM | 15.3 µM |  |  |  |  |  |  |  |  | 17.6 µM |  | 
6 | C[C@]1(CO)CCC[C@@]2(C)C1CC[C@H]1CC3C[C@]12CC[C@]3(C)O (stereo partly drawn) | > 100 µM | > 100 µM | > 100 µM | > 100 µM | > 100 µM | > 100 µM |  | 35.2 µM | > 100 µM |  |  |  |  |  |  |  |  | > 100 µM |  | 
7 | COc1ccc(Cn2cc3c(c2-c2ccc(OC)cc2)CCc2cnoc2-3)cc1 |  | > 100 µM |  |  | > 100 µM | 0.62 µM | > 100 µM | 4.71 µM | 0.815 µM | 0.322 µM | 0.444 µM | 0.336 µM | 0.892 µM | 0.259 µM | 0.523 µM | 0.343 µM | 2.68 µM | > 100 µM | 0.296 µM | 
8 | C1CCN(c2nc(=[N+]3CCCCC3)ss2)CC1 | > 100 µM | > 100 µM | > 100 µM | > 100 µM | > 100 µM |  | > 100 µM | > 100 µM |  |  |  |  |  |  |  |  |  | > 100 µM |  | 
9 | Cc1cc(N(CCNc2ccnc3cc(Cl)ccc23)Cc2ccco2)nc(Cl)n1 | 2.68 µM | 3.01 µM |  | 3.33 µM | 3.02 µM | 3.01 µM | 3.58 µM | 3.13 µM | 3.3 µM | 1.27 µM | 1.62 µM |  | 1.65 µM | 1.61 µM | 1.61 µM | 1.72 µM | 1.68 µM | 3.23 µM | 1.71 µM | 1.78 µM
10 | CCCCCCCCCc1cccc(N2C(N)=NC(N)=NC2(C)C)c1 | > 100 µM | 0.62 µM | > 100 µM | 8.22 µM | 1.06 µM | 0.193 µM | 10.5 µM |  | 2.38 µM |  |  |  |  |  |  |  |  | 4.67 µM |  | 
11 | O=C(Nc1ccccc1)NS(=O)(=O)c1ccc(-n2nc3c(c2-c2ccc(Cl)cc2)Cc2ccccc2-3)cc1 | 85.7 µM | 63.2 µM | 48.9 µM |  | 71.8 µM | 54.2 µM | 78.9 µM | 69.8 µM | 64.9 µM | 22.2 µM | 22.3 µM | 16.5 µM | 12.9 µM | 18.3 µM | 15.8 µM | 22 µM |  |  | 23.5 µM | 
12 | COc1cc2c3c(c1OC)-c1c(ccc4c1OCO4)CC3(C#N)N(C(=O)c1ccccc1)CC2 (stereo not drawn) | > 100 µM | > 100 µM | > 100 µM | > 100 µM |  | > 100 µM | > 100 µM | > 100 µM | > 100 µM |  |  |  |  |  |  |  |  | > 100 µM |  | 
13 | C[C@@H](CO)[C@@H]1CCC=C2CC[C@]3(C)[C@H](CC[C@@H]4[C@@]5(C)CCCNC(C)(C)[C@@H]5CC[C@]43C)[C@H]21 | 6.25 µM | 3.46 µM |  | 3.36 µM | 6.52 µM | 4.87 µM | 17.3 µM | 3.18 µM |  | 2.39 µM | 1.84 µM |  | 2.45 µM | 2.16 µM | 4.18 µM | 1.77 µM | 3.18 µM | 12.6 µM |  | 1.71 µM
14 | S=c1cc(S)sc2c1c(=S)sc1nc3ccccn3c(=S)c12 | > 100 µM | > 100 µM | > 100 µM | > 100 µM | > 100 µM | > 100 µM | > 100 µM | > 100 µM |  |  |  |  |  |  |  |  |  | > 100 µM |  | 
